From the supplement of paper PMC11061612

Experiments:
[1] = compound: CC(=O)Nc1cccc(-n2c(=O)n(C3CC3)c(=O)c3c(Nc4ccc(I)cc4F)n(C)c(=O)c(C)c32)c1 [Trametinib]; settings: max 1 µM
Procedure, shortened: (§1)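 Cancer cell lines were seeded into 1536-well plates in 7.5 μl medium (DMEM/F12 or RPMI, 10% FBS), held 24 hours at 37°C and 5% CO2, and dosed for 72 hours with final DMSO typically 0.2%. Luminescence from CellTiter-Glo 2.0, scaled between blank-well and DMSO-well means, served as viability. The single-agent IC50 was obtained from dose-response fits with a non-linear mixed effects model, each fit being a two-parameter logistic curve.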

[2] = compound: COc1cccc(OCCCN)c1-c1cc(Nc2cnc(C#N)cn2)n[nH]1 [Prexasertib]; settings: max 1 µM
Procedure, shortened: as §1

[3] = compound: COc1cccc2c1C(=O)c1c(O)c3c(c(O)c1C2=O)C[C@@](O)(C(=O)CO)C[C@@H]3O[C@H]1C[C@H](N)[C@H](O)[C@H](C)O1 [Doxorubicin]; settings: max 1 µM
Procedure, shortened: as §1

[4] = compound: O=c1[nH]cc(F)c(=O)[nH]1 [5-Fluorouracil]; settings: max 20 µM
Procedure, shortened: as §1

[5] = compound: CS(=O)(=O)CCNCc1ccc(-c2ccc3ncnc(Nc4ccc(OCc5cccc(F)c5)c(Cl)c4)c3c2)o1 [Lapatinib]; settings: max 10 µM
Procedure, shortened: as §1

[6] = compound: Cn1cnc2c(F)c(Nc3ccc(Br)cc3Cl)c(C(=O)NOCCO)cc21 [Selumetinib]; settings: max 10 µM
Procedure, shortened: as §1

[7] = compound: COc1cc2ncnc(Nc3ccc(F)c(Cl)c3)c2cc1OCCCN1CCOCC1 [Gefitinib]; settings: max 10 µM
Procedure, shortened: as §1

[8] = compound: CC(C)n1c(=O)n(C)c2cnc3cc(F)c(-c4ccc(OCCCN5CCCCC5)nc4)cc3c21 [AZD1390]; settings: max 0.3 µM
Procedure, shortened: as §1

[9] = compound: NC1(c2ccc(-c3nc4ccn5c(=O)[nH]nc5c4cc3-c3ccccc3)cc2)CCC1 [MK-2206]; settings: max 10 µM
Procedure, shortened: as §1

[10] = compound: CC1(C)CCC(CN2CCN(c3ccc(C(=O)NS(=O)(=O)c4ccc(NCC5CCOCC5)c([N+](=O)[O-])c4)c(Oc4cnc5[nH]ccc5c4)c3)CC2)=C(c2ccc(Cl)cc2)C1 [Venetoclax]; settings: max 1 µM
Procedure, shortened: as §1

[11] = compound: C[C@@H](Oc1cc(-c2cnn(C3CCNCC3)c2)cnc1N)c1c(Cl)ccc(F)c1Cl [Crizotinib]; settings: max 10 µM
Procedure, shortened: as §1

[12] = compound: C[C@@H](Nc1cc(F)cc(F)c1)c1cc(C(=O)N(C)C)cc2c(=O)cc(N3CCOCC3)oc12 [AZD8186]; settings: max 10 µM
Procedure, shortened: as §1

[13] = compound: Cc1cc2ncnn2cc1Nc1ncc2c(n1)n(C1CCOCC1)c(=O)n2C [AZD7648]; settings: max 10 µM
Procedure, shortened: as §1

[14] = compound: N#Cc1cnc(Nc2cc(NC[C@H]3CNCCO3)c(C(F)(F)F)cn2)cn1 [SRA737]; settings: max 10 µM
Procedure, shortened: as §1

[15] = compound: CN(C)CCCOc1ccc(-c2ccc3ncc4c(c3c2)n(C2CCOCC2)c(=O)n4C)cn1 [AZD0156]; settings: max 3 µM
Procedure, shortened: as §1

[16] = compound: C=CCn1c(=O)c2cnc(Nc3ccc(N4CCN(C)CC4)cc3)nc2n1-c1cccc(C(C)(C)O)n1 [AZD1775]; settings: max 3 µM
Procedure, shortened: as §1

[17] = compound: CN(CC[C@H](CSC1=CC=CC=C1)NC2=C(C=C(C=C2)S(=O)(=O)NC(=O)C3=CC=C(C=C3)N4CCC(CC4)[C@H](C5=CC=CC=C5C6=CC=C(C=C6)Cl)O)S(=O)(=O)C(F)(F)F)CCO [AZD4320]; settings: max 1 µM
Procedure, shortened: as §1

[18] = compound: O=C(Nc1ccc2[nH]nc(-c3ccncc3)c2c1)[C@@H]1CCN(CC(=O)N2CCN(c3ccc(-c4ncccn4)cc3)CC2)C1; settings: max 5 µM
Procedure, shortened: as §1

[19] = compound: CCc1c2c(nc3ccc(O)cc13)-c1cc3c(c(=O)n1C2)COC(=O)[C@]3(O)CC [SN-38]; settings: max 0.3 µM
Procedure, shortened: as §1

[20] = compound: Cc1nc(-c2cn3c(n2)-c2ccc(-c4cnn(C(C)(C)C(N)=O)c4)cc2OCC3)n(C(C)C)n1 [Taselisib]; settings: max 10 µM
Procedure, shortened: as §1

[21] = compound: CC(=O)O[C@H]1C(=O)[C@@]2(C)[C@H]([C@H](OC(=O)c3ccccc3)[C@]3(O)C[C@H](OC(=O)[C@H](O)[C@@H](NC(=O)c4ccccc4)c4ccccc4)C(C)=C1C3(C)C)[C@]1(OC(C)=O)CO[C@@H]1C[C@@H]2O [Paclitaxel]; settings: max 3 µM
Procedure, shortened: as §1

[22] = compound: C1CC(C1)(C(=O)[O-])C(=O)[O-].N.N.[Pt+2] [Carboplatin]; settings: max 10 µM
Procedure, shortened: as §1

[23] = compound: C[C@@H]1COCCN1C2=NC(=NC(=C2)C3(CC3)[S@](=N)(=O)C)C4=C5C=CNC5=NC=C4 [AZD6738]; settings: max 10 µM
Procedure, shortened: as §1

[24] = compound: COc1cc([C@@H]2c3cc4c(cc3[C@@H](O[C@@H]3O[C@@H]5CO[C@@H](C)O[C@H]5[C@H](O)[C@H]3O)[C@H]3COC(=O)[C@H]23)OCO4)cc(OC)c1O [Etoposide]; settings: max 10 µM
Procedure, shortened: as §1

[25] = compound: COc1cc(Nc2ncc3c(n2)-c2ccc(Cl)cc2C(c2c(F)cccc2OC)=NC3)ccc1C(=O)O [Alisertib]; settings: max 10 µM
Procedure, shortened: as §1

[26] = compound: Cc1c2c(nn1C)CSCc1cc(n(C)n1)CSc1cc(c3ccccc3c1)OCCCc1c(C(=O)O)n(C)c3c-2c(Cl)ccc13 [AZD5991]; settings: max 1 µM
Procedure, shortened: as §1

[27] = compound: O=C(c1cc(Cc2n[nH]c(=O)c3ccccc23)ccc1F)N1CCN(C(=O)C2CC2)CC1 [Olaparib]; settings: max 10 µM
Procedure, shortened: as §1

[28] = compound: CC1=C(C(=CC=C1)Cl)NC(=O)C2=CN=C(S2)NC3=CC(=NC(=N3)C)N4CCN(CC4)CCO [Dasatinib]; settings: max 2 µM
Procedure, shortened: as §1

[29] = compound: COc1nnc2ccc(N3CCC(c4ccc(OCCN5CCN(C)C(=O)[C@H]5C)cc4)CC3)nn12 [AZD5153]; settings: max 1 µM
Procedure, shortened: as §1

[30] = compound: CC1=CN2[C@@H](C1)C=NC3=CC(=C(C=C3C2=O)OC)OCCCCCOC4=C(C=C5C(=C4)N=C[C@@H]6CC(=CN6C5=O)C)OC [SG3199]; settings: max 0.001 µM
Procedure, shortened: as §1

[31] = compound: Nc1ccn([C@@H]2O[C@H](CO)[C@@H](O)C2(F)F)c(=O)n1 [Gemcitabine]; settings: max 0.3 µM
Procedure, shortened: as §1

[32] = compound: C[C@@H](c1ccc2nccn2c1)n1nnc2ncc(-c3cnn(C)c3)nc21 [Savolitinib]; settings: max 1 µM
Procedure, shortened: as §1

[33] = compound: C1CN(CCC1(C(=O)N[C@@H](CCO)C2=CC=C(C=C2)Cl)N)C3=NC=NC4=C3C=CN4 [AZD5363]; settings: max 10 µM
Procedure, shortened: as §1

[34] = compound: CC(=O)c1c(C)c2cnc(Nc3ccc(N4CCNCC4)cn3)nc2n(C2CCCC2)c1=O [Palbociclib]; settings: max 10 µM
Procedure, shortened: as §1

[35] = compound: CCN(CCO)CCCOc1ccc2c(Nc3cc(CC(=O)Nc4cccc(F)c4)[nH]n3)ncnc2c1 [AZD2811]; settings: max 1 µM
Procedure, shortened: as §1

| Cell Line | IC50, cell viability 72 h [1] [nM] | IC50, cell viability 72 h [2] [nM] | IC50, cell viability 72 h [3] [nM] | IC50, cell viability 72 h [4] [nM] | IC50, cell viability 72 h [5] [nM] | IC50, cell viability 72 h [6] [nM] | IC50, cell viability 72 h [7] [nM] | IC50, cell viability 72 h [8] [nM] | IC50, cell viability 72 h [9] [nM] | IC50, cell viability 72 h [10] [nM] | IC50, cell viability 72 h [11] [nM] | IC50, cell viability 72 h [12] [nM] | IC50, cell viability 72 h [13] [nM] | IC50, cell viability 72 h [14] [nM] | IC50, cell viability 72 h [15] [nM] | IC50, cell viability 72 h [16] [nM] | IC50, cell viability 72 h [17] [nM] | IC50, cell viability 72 h [18] [nM] | IC50, cell viability 72 h [19] [nM] | IC50, cell viability 72 h [20] [nM] | IC50, cell viability 72 h [21] [nM] | IC50, cell viability 72 h [22] [nM] | IC50, cell viability 72 h [23] [nM] | IC50, cell viability 72 h [24] [nM] | IC50, cell viability 72 h [25] [nM] | IC50, cell viability 72 h [26] [nM] | IC50, cell viability 72 h [27] [nM] | IC50, cell viability 72 h [28] [nM] | IC50, cell viability 72 h [29] [nM] | IC50, cell viability 72 h [30] [nM] | IC50, cell viability 72 h [31] [nM] | IC50, cell viability 72 h [32] [nM] | IC50, cell viability 72 h [33] [nM] | IC50, cell viability 72 h [34] [nM] | IC50, cell viability 72 h [35] [nM] |
| --- | --- | --- | --- | --- | --- | --- | --- | --- | --- | --- | --- | --- | --- | --- | --- | --- | --- | --- | --- | --- | --- | --- | --- | --- | --- | --- | --- | --- | --- | --- | --- | --- | --- | --- | --- |
| K5 (Thyroid Gland Carcinoma) | 14.3 | 251 | 266 | > 20000 | > 10000 | 2190 | > 10000 | > 300 | > 10000 | > 1000 | 9780 | > 10000 | > 10000 | > 10000 | > 3000 | > 3000 | > 1000 | 3880 | 150 | 558 | 56.1 | > 10000 | > 10000 | > 10000 | 638 | > 1000 | > 10000 | 604 | 243 | > 1 | > 300 | > 1000 | > 10000 | > 10000 | > 1000 |
| PCI-30 (Head and Neck Carcinoma) | > 1000 | 74 | > 1000 | > 20000 | > 10000 | > 10000 | > 10000 | > 300 | > 10000 | > 1000 | > 10000 | > 10000 | > 10000 | > 10000 | > 3000 | > 3000 | > 1000 | > 5000 | 110 | > 10000 | > 3000 | > 10000 | > 10000 | > 10000 | > 10000 | > 1000 | > 10000 | > 2000 | > 1000 | > 1 | > 300 | > 1000 | > 10000 | > 10000 | > 1000 |
| SUP-T1 (T-Lymphoblastic Leukemia) | > 1000 | 21.8 | 145 | > 20000 | > 10000 | > 10000 | > 10000 | > 300 | 7710 | > 1000 | 2730 | > 10000 | > 10000 | 7670 | > 3000 | 272 | > 1000 | > 5000 | 3.19 | 1730 | 13.6 | > 10000 | 3280 | 805 | 1590 | > 1000 | > 10000 | > 2000 | 117 | > 1 | 16.7 | > 1000 | 3600 | 2360 | > 1000 |
| LoVo (Colorectal Carcinoma) | 156 | 24.4 | > 1000 | > 20000 | > 10000 | 5810 | > 10000 | > 300 | 5230 | > 1000 | > 10000 | 952 | > 10000 | 8630 | > 3000 | 192 | > 1000 | 1680 | 108 | 5550 | 70.3 | > 10000 | 1170 | > 10000 | > 10000 | > 1000 | > 10000 | > 2000 | > 1000 | > 1 | 138 | > 1000 | 7270 | 7650 | > 1000 |
| LU-139 (Small Cell Lung Carcinoma) | > 1000 | 413 | 513 | > 20000 | > 10000 | > 10000 | > 10000 | > 300 | > 10000 | > 1000 | 9530 | > 10000 | > 10000 | > 10000 | > 3000 | 1210 | 47.4 | > 5000 | 39.2 | > 10000 | 124 | > 10000 | > 10000 | 2430 | 5740 | > 1000 | > 10000 | > 2000 | 103 | > 1 | 29.5 | > 1000 | > 10000 | > 10000 | > 1000 |
